# Assays:
# Assay type in all cases: cell-based, human
# [1] = test system: MAGE-A protein in HMC-1.1 cells; experiment: Western blot of MAGE-A protein after STI 571; conditions: 12 and 24 hours after administration of STI 571
# [2] = test system: MAGE mRNA in HMC-1.1 cell; experiment: Genechip array analysis of MAGE mRNA after STI 571; conditions: HMC-1.1 cells, 1 μM STI571 for 4 hours, Means +/- SEM
# Description: (§1) The human mast cell line HMC-1 is dependent on the expression of mutant KIT protein which is constitutively activated, and inhibition of activated KIT with a drug induces apoptosis of HMC-1 cells (Ma et al., 2002, The c-KIT mutation causing human mastocytosis is resistant to STI571 and other KIT kinase inhibitors; kinases with enzymatic site mutations show different inhibitor sensitivity profiles than wild-type kinases and those with regulatory-type mutations. Blood 99:1741-4.). However, the mechanism by which KIT inhibitors cause apoptosis in these cells is unknown. To look for genes whose products could regulate and transduce KIT related signals controlling apoptosis, we used gene chip array analysis to study changes in the mRNA levels of specific genes following induction of apoptosis.
# HMC-1.1 cells were divided into triplicate cultures of two groups: a control group treated with PBS, and an experimental group treated with 1 μM STI571, a KIT inhibitor for 4 hours. A quarter of the cells were used for Western blots to confirm the KIT inhibition, and the rest were used for total RNA isolation for genechip analysis. We used Affymetrix Genechip human Genome U133A chips. The arrays were hybridized and scanned and the data were analyzed using dChip analysis software. The statistical significance of differences in mRNA expression levels between STI571 treated and control cells were assessed by t-test based on data from three independent replicates. Values are expressed as Means +/−SEM, and p<0.05 was considered statistically significant.
# HMC-1.1 cells = experiment: Induction of apoptosis by STI 571; conditions: following decrease of MAGE mRNA and protein
# Description: as §1
smiles,measurement,setting,value
Cc1ccc(NC(=O)c2ccc(CN3CCN(C)CC3)cc2)cc1Nc1nccc(-c2cccnc2)n1 [STI 571],MAGE-A protein level (Western blot),[1],down-regulation of MAGE-A protein
same,"mRNA level, melanoma antigen, family A, 1 (NM_004988)","[2]; three replicates, PBS control 757 ± 29",562 ± 33
same,"mRNA level, melanoma antigen, family A, 12 (BC003408)",[2]; PBS control 513 ± 29,410 ± 26
same,"mRNA level, melanoma antigen, family E, 1 (NM_016249)",[2]; PBS control 514 ± 13,405 ± 21
same,"mRNA level, melanoma antigen, family A, 5 (AI200443)",[2]; PBS control 520 ± 28,414 ± 28
same,"mRNA level, melanoma antigen, family A, 6 (U10691)",[2]; PBS control 896 ± 54,712 ± 42
same,"mRNA level, melanoma antigen, family A, 3 (BC000340)",[2]; PBS control 977 ± 67,779 ± 32
same,apoptosis of the cells,HMC-1.1 cells,followed by apoptosis of the cells

# — patent publication US20050265997A1, “Cancer treatment method by inhibiting MAGE gene expression or function” (WISCONSIN ALUMNI RESEARCH FOUNDATION, priority 2004, published 2005)
